From patent US20230320957A1, “COMPOSITION FOR ANTI-AGING OR SKIN REGENERATION COMPRISING ISOPROCURCUMENOL” (POSCO, priority 2020, published 2023)

Assays:
Format in all cases: cell-based
EGFR = EGFR (Homo sapiens, UniProt P00533); experiment: EGFR activity measurement biosensor system (EGFP-SH2 fluorescence); settings: 100 μM; cells cultured 24 hours in serum-free medium; compared to DMSO control
Method: In addition, by using the feature that, when the activities of the EGFR continue to be maintained, the EGFR is internalized into the cell, the cell of the biosensor system that may measure the activities of the EGFR was used in the present experimentation (see Korean Laid-open Patent Publication No. 2019-0014340).
After culturing the cells in a serum-free medium for 24 hours, the cells were treated with Isoprocurcumenol.

HaCaT cells [1] = experiment: MTT cytotoxicity assay in HaCaT keratinocytes
Method: The cytotoxicity of Isoprocurcumenol was measured using HaCaT cells as keratinocytes.
When cells are treated with MTT tetrazolium which is a yellow water-soluble substrate, such a substrate is reduced to MTT formazan by mitochondrial enzymes, and the color changes to blue-purple. That is, since the blue-violet color appears darker as the number of living cells increases, the blue-violet absorbance at a wavelength of 540 nm reflects the concentration of living cells.
Specifically, after culturing cells to fill each well of a 96-well plate, the cells were treated with Isoprocurcumenol at concentrations of 0, 10, 25, 50 and 100 μM, and cultured for 24 hours and 48 hours in a 5% CO2 incubator at 37° C. Thereafter, cell viability was measured using MTT reagent. A control group not treated with Isoprocurcumenol (0 μM) was treated with the same amount of the solvent DMSO.

ERK = ERK activation (phosphorylation) by Western blotting in HaCaT cells; settings: 10 μM
Method: (§1) It is well known that the activities of extracellular signal-regulated kinase (ERK) and protein kinase B (AKT) transmit signals necessary for cell growth and survival by the activities of an EGFR. In addition, in Experimental Example 1, it was observed that Isoprocurcumenol generated signals due to activation of the EGFR in the cells of the biosense system for measuring the activities of the EGFR. Accordingly, it was measured whether the activities of the EGFR were induced by Isoprocurcumenol to the activities of the ERK and AKT.
(§2) Specifically, HaCaT cells were cultured in a serum-free medium, treated with 10 μM of Isoprocurcumenol for 10 minutes, 30 minutes and 60 minutes, respectively, and, thereafter, phosphorylated and activated ERK and AKT were analyzed by Western blotting. As antibodies, a phosphorylation antibody as a marker of activated ERK and AKT, and a general antibody for measuring all thereof were used, respectively.

AKT = AKT activation (phosphorylation) by Western blotting in HaCaT cells; settings: 10 μM
Method: as §1, §2

egr1 = egr1 gene expression by real-time quantitative PCR in HaCaT cells; settings: 10 μM, 1 hour, serum-free medium
From the text: (§3) Signaling by an EGFR induces the expression of genes important for cell growth and survival through important signaling mediator proteins such as ERK and AKT. The egr1, c-myc, c-jun and c-fos genes are regulated by the EGFR and are well known as genes that promote cell growth and survival.
(§4) Specifically, Tri-reagent was used for mRNA extraction, cDNA was created by a reverse transcription polymerase chain reaction (RT-PCR) using a poly-A primer and a reverse transcriptase, and real-time quantitative PCR was used to measure the amount of each mRNA. The amount of each mRNA was corrected with the amount of β-actin, which is a constitutive gene.

c-myc = c-myc gene expression by real-time quantitative PCR in HaCaT cells; settings: 10 μM, 1 hour, serum-free medium
From the text: as §3, §4

c-jun = c-jun gene expression by real-time quantitative PCR in HaCaT cells; settings: 10 μM, 1 hour, serum-free medium
From the text: as §3, §4

c-fos = c-fos gene expression by real-time quantitative PCR in HaCaT cells; settings: 10 μM, 1 hour, serum-free medium
From the text: as §3, §4

HaCaT cells [2] = experiment: CCK-8 assay of growth and proliferation of keratinocytes; settings: 24 hours, serum-free medium, p<0.05
Method: Cell counting kit-8 (CCK-8) is a water-soluble tetrazolium salt reagent called WST-8 and forms orange-colored water-soluble Formazan by dehydrogenase in the mitochondria of living cells.
Specifically, after culturing 1×10^4 HaCaT cells in a 96-well plate for 24 hours, the cells were changed to a serum-free medium to remove the growth factors contained in the medium, and treated with Isoprocurcumenol at the concentrations of 1 nM, 10 nM, 100 nM, 1 μM and 10 μM. […] After cultured for 24 hours, the cells were treated with CCK8, and the cell growth was analyzed by measuring absorbance at 450 nm.

HaCaT cells [3] = experiment: Wound healing assay; settings: 1 μM
Method: The cell growth promoting effect of Isoprocurcumenol was confirmed through wound healing assay. Specifically, after fully culturing HaCaT cells in a 12-well plate, cells on a certain area were scraped off using a yellow tip to form a wound area, changed to a serum-free medium, and treated with 1 μM of Isoprocurcumenol.

HaCaT cells [4] = experiment: Resistance to UVB-induced cell damage (CCK-8 viability); settings: 1 μM, UVB 500 mJ/cm2, serum-free medium, negative control about 40%
Method: Among the ultraviolet wavelengths, UVB wavelengths corresponding to 280 to 315 nm penetrate the epidermal layer where many keratinocytes exist to cause cell damage.
The solvent DMSO was used as a negative control group, and the cell viability was measured using the CCK-8 method used in Experimental Example 6.

EGFR, sequence (P00533 25-1210, species assumed): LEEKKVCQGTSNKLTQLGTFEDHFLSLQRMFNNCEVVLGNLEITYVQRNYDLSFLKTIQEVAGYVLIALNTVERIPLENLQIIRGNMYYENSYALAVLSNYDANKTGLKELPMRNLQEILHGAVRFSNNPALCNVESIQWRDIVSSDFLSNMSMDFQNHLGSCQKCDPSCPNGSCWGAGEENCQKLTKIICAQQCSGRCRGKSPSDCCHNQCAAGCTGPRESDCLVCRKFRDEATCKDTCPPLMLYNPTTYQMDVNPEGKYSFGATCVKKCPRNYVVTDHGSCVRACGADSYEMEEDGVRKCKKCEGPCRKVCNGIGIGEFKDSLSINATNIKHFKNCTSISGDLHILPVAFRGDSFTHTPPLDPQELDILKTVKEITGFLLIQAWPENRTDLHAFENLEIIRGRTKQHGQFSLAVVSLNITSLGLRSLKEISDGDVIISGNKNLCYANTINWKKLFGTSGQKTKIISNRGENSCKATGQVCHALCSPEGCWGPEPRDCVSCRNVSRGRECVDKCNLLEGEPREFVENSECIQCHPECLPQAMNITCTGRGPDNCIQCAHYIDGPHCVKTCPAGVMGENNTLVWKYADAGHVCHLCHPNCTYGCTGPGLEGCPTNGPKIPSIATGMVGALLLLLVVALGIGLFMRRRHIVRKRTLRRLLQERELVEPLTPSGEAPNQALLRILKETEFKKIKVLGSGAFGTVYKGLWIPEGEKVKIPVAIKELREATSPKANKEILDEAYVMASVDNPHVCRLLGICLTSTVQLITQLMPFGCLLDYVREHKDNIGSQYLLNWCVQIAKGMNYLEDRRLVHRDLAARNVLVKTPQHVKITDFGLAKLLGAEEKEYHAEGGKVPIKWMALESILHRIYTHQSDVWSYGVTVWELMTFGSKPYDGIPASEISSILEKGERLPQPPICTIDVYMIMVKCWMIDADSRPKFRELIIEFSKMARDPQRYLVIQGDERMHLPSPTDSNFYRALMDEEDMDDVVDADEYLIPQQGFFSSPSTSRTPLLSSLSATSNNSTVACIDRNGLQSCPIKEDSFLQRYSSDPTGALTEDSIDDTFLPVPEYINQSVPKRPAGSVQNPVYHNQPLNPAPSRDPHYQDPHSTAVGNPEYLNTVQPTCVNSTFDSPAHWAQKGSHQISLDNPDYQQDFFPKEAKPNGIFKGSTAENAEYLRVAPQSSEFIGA

Question: With `C=C1CC(=O)C(=C(C)C)C[C@H]2[C@H]1CC[C@]2(C)O` [Isoprocurcumenol] as the compound, how does the “EGFR activation (fluorescence signal of biosensor cells)” value (EGFR) read?
Answer: activated

Question: What about the “cytotoxicity in keratinocytes (overall)” value (HaCaT cells [1]; 0-100 μM, 24 hours and 48 hours, MTT) of the same compound?
Answer: very low

Question: And the “cytotoxicity (difference in cell viability)” value (HaCaT cells [1]; 100 μM, cultured 48 hours, MTT)?
Answer: 10%

Question: And the cytotoxicity (HaCaT cells [1]; concentration of 10 μM or less)?
Answer: free of cytotoxicity

Question: What about the “time to ERK activation” value (ERK) of the same compound?
Answer: ≤ 30 min

Question: And the “induction of ERK activity” value (ERK; 10 minutes, serum-free medium)?
Answer: sufficiently induced

Question: What about the “time to AKT activation” value (AKT) of the same compound?
Answer: ≤ 30 min

Question: And the “induction of AKT activity” value (AKT; 10 minutes, serum-free medium)?
Answer: sufficiently induced

Question: And the “egr1 mRNA (corrected with β-actin)” value (egr1)?
Answer: increased

Question: And the “c-myc mRNA (corrected with β-actin)” value (c-myc)?
Answer: increased

Question: And the “c-jun mRNA (corrected with β-actin)” value (c-jun)?
Answer: increased

Question: What about the “c-fos mRNA (corrected with β-actin)” value (c-fos) of the same compound?
Answer: increased

Question: What about the “growth and proliferation of cells vs negative control” value (HaCaT cells [2]; 10 nM) of the same compound?
Answer: significantly increased

Question: And the “growth and proliferation of cells vs negative control” value (HaCaT cells [2]; 100 nM)?
Answer: significantly increased

Question: What about the “growth and proliferation of cells vs negative control” value (HaCaT cells [2]; 1 μM) of the same compound?
Answer: significantly increased

Question: And the “growth and proliferation of cells vs negative control” value (HaCaT cells [2]; 10 μM)?
Answer: significantly increased

Question: What about the “filling of wound area vs negative control” value (HaCaT cells [3]; culture for 6 days, serum-free medium) of the same compound?
Answer: more quickly filled

Question: What about the “difference in wound area vs negative control” value (HaCaT cells [3]; from the 3rd day, t-test p<0.05) of the same compound?
Answer: more significant difference

Question: And the “cells survived after UVB” value (HaCaT cells [4])?
Answer: about 60%
